These results are taken from patent US6214859A, “Ethylamine derivatives” (Fujimoto Brothers Co., Ltd., priority 1997, dated 2001).

SMILES strings stand for the structures. Where “and” joins values, the source holds several entries; their conditions need not be identical. Identical values can stand only once.

In data set [1] the target is T1, human platelet MAO-B (Homo sapiens, UniProt P27338).
T1 construct: The suspension was used as enzyme for MAO activity assay in blood platelets; from tissue; host or cells: human blood platelets (frozen, thawed and sonicated platelet rich plasma)
T1 sequence (P27338 1-520): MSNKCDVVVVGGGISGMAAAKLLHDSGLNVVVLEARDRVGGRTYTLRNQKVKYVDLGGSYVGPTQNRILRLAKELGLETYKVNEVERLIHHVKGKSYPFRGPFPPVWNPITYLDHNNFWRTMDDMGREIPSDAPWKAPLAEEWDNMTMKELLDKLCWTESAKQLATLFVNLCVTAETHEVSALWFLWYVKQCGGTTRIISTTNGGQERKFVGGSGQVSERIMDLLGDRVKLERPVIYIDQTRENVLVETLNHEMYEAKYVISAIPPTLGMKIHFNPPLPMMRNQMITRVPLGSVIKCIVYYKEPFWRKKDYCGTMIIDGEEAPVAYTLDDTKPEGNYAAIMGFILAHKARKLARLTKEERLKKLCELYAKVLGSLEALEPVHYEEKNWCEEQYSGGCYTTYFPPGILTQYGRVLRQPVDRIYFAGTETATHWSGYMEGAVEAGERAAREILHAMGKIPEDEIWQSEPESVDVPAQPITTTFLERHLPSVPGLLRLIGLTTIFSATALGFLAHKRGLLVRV
In words: biochemical. Conditions: 10^-5 M; read-out: Inhibition rate of MAO-B. As to the method:
Human blood added with 3.8% citric acid was centrifuged at 950 rpm for 10 min and platelet rich plasma (PRP) was obtained. The residual blood cell was centrifuged at 3,000 rpm for 10 min and platelet poor plasma (PPP) was obtained. After blood platelets were measured from a part of PRP, PRP and PPP were frozen at -20° C. They were thawed and were sonicated to be dispersed and suspended when MAO activity was measured. The suspension was used as enzyme for MAO activity assay in blood platelets. In addition, almost all of MAO in blood platelets have been known to be B type.
MAO-B activity was determined according to the method described in Biochem. Pharmacol., 14, 1684-1685 (1965). […] The mixture was incubated at 37° C. for 5 min. After 80 μl of PRP or PPP was added to it, the mixture was incubated at 37° C. for 20 min. Thereafter, 120 μl of substrate (0.33 mg/ml kynuramine dihydrobromide) was added thereto. After incubation at 37° C. for 30 min, 800 μl of 10% trichloroacetic acid were added to stop the reaction and the solution was centrifuged at 3,000 rpm for 10 min. To 1 ml of the supernatant, 2 ml of 1 N NaOH was added and fluorescence of the solution was measured at Ex 312 nm and Em 380 nm. PRP was prepared to 250,000 cell/μl as amounts of blood platelets with […] phosphate buffer solution and 4-hydroxyquinoline was used as standard for measurement.

The subject of data set [2] is rats reduced learning ability by tetrabenazine. In words: Conditioned avoidance task in the shuttle box (tetrabenazine-treated rats). The class given is in vivo, rat. Conditions: tetrabenazine 1 mg/kg s.c., significance and direction. In outline: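 Male and female rats (200–220 g) were trained in a shuttle box (light/buzzer conditioned stimulus, 100 trials/day for 5 days). Tetrabenazine 1 mg/kg s.c. was given 1 h before testing, with compound at 1, 2, 2.5 or 5 mg/kg s.c. given together with tetrabenazine. CARs, EFs and IRs were counted automatically and analysed by multi-way ANOVA.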

The nature of data set [3]: Toxicity screening using primary cultured hepatocyte (LDH release). The class given is cell-based, rat. Conditions: rat, primary hepatocytes, 24 hr, control 0.5% saline or 0.5% DMSO, read-out: Percent control of LDH release. As to the method: The hepatocytes was prepared from rat liver by collagenase perfusion method and suspension containing 5×10^5 cells/ml were prepared. After cultivation for 24 hr, the suspension was exchanged to the William's Medium E (GIBCO BRL) containing 10 or 100 μM of the compounds of this invention. After cultivation for 24 hr, the activity of lactate dehydrogenase (LDH) released in the medium was measured.

Data set [4] concerns dopamine release, striatum. In words: Release of biogenic amines from brain tissue: dopamine, striatum. The class given is in vivo, Wistar rats.

By inhibition is commonly meant the share of the control response that was lost under treatment. Take `CCCNC(CCC)Cc1c[nH]c2ccccc12.Cl` (stereo not shown) [Compound No. 20, 1-(Indol-3-yl)-2-propylaminopentane Hydrochloride]: in data set [1], the inhibition at 10 µM amounted to 6.4%. Further, the “Condition Avoidance Reflex (CARs)” value in data set [2] (1 mg/kg s.c., Hydrochloride) is “* .Arrow-up bold”; in data set [2] (2.5 mg/kg s.c.) it was “**** .Arrow-up bold”; in data set [2] (5 mg/kg s.c.), “**** .Arrow-up bold”. For the same compound, the “Escape Failures (EFs)” value in data set [2] (2.5 mg/kg s.c.) is recorded as “**** .dwnarw”; in data set [2] (5 mg/kg s.c.), “* .dwnarw”. In addition, in data set [2] (5 mg/kg s.c.), the “Intersignal Reactions (IRs)” value is reported as “* .dwnarw”. The activity at 24 h, 10 µM in data set [3] was determined as 92.7 ± 5.31%. The activity at 24 h, 100 µM in data set [3] is 185 ± 3.45%. Also, the “Release of dopamine, striatum” value in data set [4] (0.005 mg/kg s.c.) is 5.8 ± 0.11 nmol/g tissue, for 20 min; in data set [4] (0.01 mg/kg s.c., Hydrochloride) it was 6.5 ± 0.12 nmol/g tissue, for 20 min and 5.8 ± 0.18 nmol/g tissue, for 20 min; in data set [4] (0.05 mg/kg s.c.), 5.6 ± 0.13 nmol/g tissue, for 20 min; in data set [4] (0.25 mg/kg s.c.), 3.2 ± 0.05 nmol/g tissue, for 20 min; in data set [4] (1.00 mg/kg s.c.), 4.2 ± 0.15 nmol/g tissue, for 20 min; in data set [4] (5.00 mg/kg s.c.), 4.7 ± 0.13 nmol/g tissue, for 20 min.
Consider `CCCNC(CCC)Cc1ccc2c(c1)OCO2.Cl` (stereo not shown) [Compound No. 27, 1-(1,3-Benzodioxol-5-yl)-2-propylaminopentane Hydrochloride], for which, in data set [1], the inhibition at 10 µM was found to be 34%. In data set [2] (1 mg/kg s.c.), the “Condition Avoidance Reflex (CARs)” value was “*** .Arrow-up bold” and the “Escape Failures (EFs)” value is recorded as “*** .dwnarw”. Further, in data set [3], the activity at 24 h, 10 µM is 115 ± 10.8% and the activity at 24 h, 100 µM was determined as 114 ± 11.2%. The “Release of dopamine, striatum” value in data set [4] (0.10 mg/kg s.c.) was 3.4 ± 0.10 nmol/g tissue, for 20 min. In data set [4] (0.25 mg/kg s.c.), the “Release of dopamine, striatum” value was 4.1 ± 0.24 nmol/g tissue, for 20 min.
